Drawing on PubChem BioAssay (NCI), this text covers GI50 and TGI for seven compounds.

Where “and” joins values, the source holds several entries; their conditions need not be identical. Equal entries are not always repeated.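 Compound exposure: 48 hours, 5 concentrations, 96-well plates. The concentration for 50% growth inhibition is given as GI50. The concentration for full growth arrest is given as TGI.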

Common to all, as to experiment: DTP human tumour cell line panel, 48 h
Experiment [1] relates to HCT-15 colon.
The test system of experiment [2] is SF-268 CNS.
In experiment [3] the test system is HL-60(TB) leukemia.
Experiment [4] relates to KM12 colon.
Experiment [5] relates to U251 CNS.
For experiment [6], the system named is IGROV1 ovarian.
Experiment [7] concerns SN12C renal.
Experiment [8] has as its system HCC-2998 colon.
Experiment [9] has as its system SK-MEL-28 melanoma.
Experiment [10] relates to COLO 205 colon.

In the case of `COc1cc(-c2cc(-c3nc4ccc(Cl)cc4[nH]3)[nH]n2)cc(OC)c1OC`, the GI50 (usually the concentration giving 50% growth inhibition) in experiment [1] was 2.9 µM; in experiment [2], 3.6 µM; in experiment [3], 2.49 µM; in experiment [4], 3.45 µM; in experiment [5] it was 3.38 µM; in [6] it was 3.42 µM. In addition, the GI50 in experiment [7] was 3.06 µM; in experiment [8] it was 5.98 µM; in experiment [9], 2.42 µM; in [10] it was 3.18 µM. Moreover, the TGI (commonly the concentration at which net growth stops) in experiment [1] turned out to be 13.2 µM; in [2] it was 13.2 µM; in experiment [3] it was 7.47 µM; in experiment [4], 10.6 µM; in experiment [5] it was 14.1 µM; in [6], 16.3 µM. Besides, the TGI in [7] turned out to be 15.6 µM; in [8], 18.7 µM; in [9], 7.11 µM; in experiment [10], 10 µM.
`CN(C)CCNC(=O)c1cccc2[nH]c(-c3ccccc3)nc12`: the TGI in experiment [1] is 34.5 µM; in [2] it was 46.3 µM; in [3] it was 54.3 µM; in experiment [4], 66.4 µM; in [5] it was 65.1 µM; in experiment [6] it was 50.9 µM. Besides, the TGI turned out to be 43.7 µM in experiment [7], 29.1 µM in experiment [8], 32.5 µM in experiment [9] and 24.7 µM in [10].
As to `COC1=CC(c2ccc[nH]2)=N/C1=C\c1ccc[nH]1`, the GI50 was 0.0337 µM in experiment [1]; 0.254 µM in [2]; 0.0672 µM in experiment [3]; 0.0698 µM in experiment [4]; 0.379 µM in experiment [5]; 0.172 µM in [6]. Further, the GI50 was 0.433 µM in experiment [7], 0.361 µM in experiment [8], 0.774 µM in experiment [9] and 0.0897 µM in experiment [10]. For the same compound, the TGI in experiment [1] was determined as 12.3 µM; in experiment [2], 15.9 µM; in experiment [3], 3.39 µM; in [4], 12.8 µM; in experiment [5], 12.4 µM; in experiment [6], 4.7 µM. Also, the TGI in experiment [7] is 19.7 µM; in experiment [8] it was 9.54 µM; in experiment [9], 9.35 µM; in experiment [10] it was 5.7 µM.
For the compound `Cc1ccc(S(=O)(=O)N2CCc3ccc(O)c4c3C2Cc2cc(Cl)ccc2-4)cc1` (configuration not stated), the GI50 in [1] is 1.35 µM; in experiment [2] it was 2.47 µM; in [3] it was 1.05 µM; in experiment [4], 1.18 µM; in experiment [5] it was 0.972 µM; in experiment [6] it was 1.35 µM. Further, the GI50 in [7] is 1.78 µM; in [8], 1.65 µM; in experiment [9], 1.68 µM; in [10], 8.12 µM. Also, the TGI in experiment [1] worked out at 6.97 µM; in experiment [2], 9.72 µM; in experiment [3], 4.06 µM; in [4], 4.21 µM; in experiment [5], 3.77 µM; in experiment [6], 5.86 µM. The TGI in experiment [7] came to 7.42 µM; in experiment [8], 5.37 µM; in [9] it was 5.84 µM; in experiment [10], 26.2 µM.
For `CO[C@@H]1[C@H](OC(=O)NC(=O)CCl)CC[C@]2(CO2)[C@H]1[C@@]1(C)O[C@@H]1CC=C(C)C`, the GI50 in experiment [1] is 5.15 µM; in experiment [2], 20 µM; in [4], 3.36 µM; in [5], 4.98 µM and 0.575 µM; in [7], 3.27 µM; in [9], 18.9 µM. The GI50 in experiment [10] was 9.44 µM and 2.54 µM. Further, the total growth inhibition concentration (TGI) in experiment [1] was 56.1 µM and 35.7 µM; in experiment [2], 33.6 µM and 74.5 µM; in experiment [3] it was 14.8 µM; in experiment [4], 27.2 µM and 28.6 µM; in [5], 20.8 µM and 13.3 µM; in experiment [6], 33 µM and 43.4 µM. The TGI was 31.3 µM and 25.7 µM in experiment [7]; 10.8 µM in experiment [8]; 32.8 µM and 47.9 µM in experiment [9]; 31.5 µM and 35.7 µM in [10].
For the compound `O=c1cnn2c(n1)sc1ccc3ccccc3c12`, the TGI in [1], in [2], in [3], in experiment [4], in [5] and in experiment [6] was over 100 µM throughout. Besides, the TGI in experiment [7], in [8], in experiment [9] and in experiment [10] was over 100 µM throughout.
For `Cc1nc(NC(=O)CCCN2C(=O)c3cccc4cccc(c34)C2=O)sc1C(=O)Nc1cc(C(=O)NCCCN(C)C)n(C)c1`, the GI50 in [1], in experiment [2], in [3], in [4], in experiment [5] and in [6] was over 100 µM in each case. Moreover, the GI50 in experiment [7], in experiment [8], in [9] and in experiment [10] was over 100 µM each time. Further, the TGI in [1], in experiment [2], in experiment [3], in experiment [4], in [5] and in [6] was over 100 µM throughout. The TGI in experiment [7], in experiment [8], in experiment [9] and in [10] was over 100 µM throughout.
